The results in this text go back to patent publication US9617278B2, “Antimicrobial compounds” (Dow Global Technologies LLC, priority 2012, dated 2017).

The subject of series [1] is mixed pool of 6 bacterial species (aerobic organisms). The experiment in a line: Biocidal efficacy at room temperature, aerobic bacteria. It counts as cell-based. Here is the method:
(§1) Glutaraldehyde and Compounds 1 and 2 are tested for biocidal activity against a pool of aerobic organisms at room temperature and against sulfate reducing bacteria (SRB) at room temperature. Tests are performed as follows:
(§2) a. Stock preparation. Glutaraldehyde (50% in water) and Compounds 1 and 2 are each dissolved in DMSO to a concentration of 200 mM, which is equivalent to 20,000 ppm of free glutaraldehyde.
b. Aerobic Bacteria—a mixed pool of 6 bacterial species at ˜5×10^6 CFU/mL in phosphate buffered saline is distributed into a 96-well plate. Each well receives an independent chemical treatment of glutaraldehyde or Compound 1 or 2 at concentrations ranging from 200 ppm to 12 ppm glutaraldehyde. A control treatment of DMSO alone is also included. Each condition is tested in triplicate. After set periods of incubation (1, 4, and 24 h), the number of surviving cells in each well are enumerated by dilution to extinction in a medium containing resazurin dye as an indicator. c. Sulfate Reducing Bacteria (SRB)—SRB testing is performed as for the aerobic bacteria with the following modifications: the species Desulfovibrio longus is tested in anaerobic PBS and the enumeration of surviving cells is performed in a medium containing soluble iron as an indicator. d. Results: Values indicate the minimum dose needed (in ppm) to achieve 3-log reduction in bacteria levels. […]

The next series deals with Desulfovibrio longus. The experiment in a line: Biocidal efficacy at room temperature, sulfate reducing bacteria (SRB). It counts as cell-based. The conditions noted are these: for minimum dose needed to achieve 3-log reduction in bacteria levels: SRB, anaerobic PBS, doses 200 to 12 ppm glutaraldehyde equivalent, n/a = threshold not met at any tested dose; for activity against SRB (in words): compared with glutaraldehyde. Here is the method: as §1, §2
b. Aerobic Bacteria—a mixed pool of 6 bacterial species at ˜5×10^6 CFU/mL in phosphate buffered saline is distributed into a 96-well plate. Each well receives an independent chemical treatment of glutaraldehyde or Compound 1 or 2 at concentrations ranging from 200 ppm to 12 ppm glutaraldehyde. A control treatment of DMSO alone is also included. Each condition is tested in triplicate. After set periods of incubation (1, 4, and 24 h), the number of surviving cells in each well are enumerated by dilution to extinction in a medium containing resazurin dye as an indicator. c. Sulfate Reducing Bacteria (SRB)—SRB testing is performed as for the aerobic bacteria with the following modifications: the species Desulfovibrio longus is tested in anaerobic PBS and the enumeration of surviving cells is performed in a medium containing soluble iron as an indicator. d. Results: Values indicate the minimum dose needed (in ppm) to achieve 3-log reduction in bacteria levels. “n/a” indicates the threshold was not met at any of the tested doses. “N.D” indicates data not available.

The test system of series [2] is Thermus thermophilus (ATCC 27634). The experiment in a line: Biocidal efficacy at elevated temperature. The series is classed as cell-based. The conditions noted are these: for log kill of treated bacterial populations relative to an untreated control: 50 ppm glutaraldehyde equivalent. The method, then:
Compound 1 (208 mg) is dissolved in DMSO (5 mL) to yield a 200 mM solution such that the glutaraldehyde-equivalent concentration of the stock solution is 20,000 ppm. The bacterial strain Thermus thermophilus (ATCC 27634) is maintained at 70° C. After 24-48 hours of growth, 10 mL of bacterial culture are harvested by spinning in a Beckman-Coulter benchtop centrifuge at 3000 rpm for 15 min. The cell pellet is resuspended in 100 mL of phosphate-buffered saline (PBS) to give approximately 5×10^5 CFU/mL and aliquoted into 10 mL portions in glass test tubes fitted with screw caps. Samples are equilibrated to 37, 55, or 70° C. for 30 min and then treated with glutaraldehyde or Compound 1 at 50 ppm glutaraldehyde equivalent. The treated samples are returned to their respective equilibration temperatures for 4 h and then enumerated for surviving bacteria. After 24 h, the process is repeated by adding fresh grown bacteria to the samples to re-challenge the biocide. The samples are again enumerated after 4 h.
Results are reported in terms of log kill of treated bacterial populations relative to an untreated control at each temperature. For values listed as “>x,” actual kill may have been higher but could not be detected by this assay.

Series [3] can be described thus: Stability of the compound on work-up, GC of dried sample. As to conditions: GC peak becomes smaller after drying of the crude material. The series is classed as physicochemical. Here is the method:
A three neck 50 mL round bottom flask equipped with a stir bar, thermocouple, addition funnel capped with nitrogen inlet and condenser is charged with 2-amino-2-methylpropan-1-ol (95%, 7.8 g, 0.083 mols, 1.0 equivalents). The flask is cooled down to approximately 10° C. under ice/water bath. Once the temperature is reached, glutaraldehyde (50%, 16.7 g, 0.083 mols, 1.0 equivalents) is added drop wise over a period of 15-20 minutes. The reaction temperature is maintained by cooling the bath and by controlled addition of glutaraldehyde. After complete addition of glutaraldehyde, the transparent reaction mixture turns milky/opaque and a viscous sticky solid starts forming making stirring difficult. The reaction is stopped and the GC of the material is taken and a peak at 11.99 minutes is observed which corresponds to compound (4). The GC has some minor impurities in the high retention region. 20 mL of ethyl acetate is added to the reaction mixture and vigorously stirred under nitrogen. The entire content of the flask dissolve in ethyl acetate. The ethyl acetate layer is washed twice with 25 mL of water and the organic layer dried in magnesium sulfate.
A three neck 100 mL round bottom flask equipped with a stir bar, thermocouple, addition funnel capped with nitrogen inlet and condenser is charged with 3-aminobutan-2-ol (100%, 8.9 g, 0.1mols, 1.0 equivalent). […]

Take `CCCCC(CC)C1OC2CCC=CN2C1C` (stereo not drawn) [Compound 2, 2-(heptan-3-yl)-3-methyl-3,7,8,8a-tetrahydro-2H-oxazolo[3,2-a]pyridine]: the “biocidal activity against aerobic bacteria (in words)” value in series [1] was “do not show significant biocidal activity”. Also, the “minimum dose needed to achieve 3-log reduction in bacteria levels” value in the series with Desulfovibrio longus (1 hour) is 200 ppm; in the series on Desulfovibrio longus (4 hours), greater than 200 ppm. Moreover, the “activity against SRB (in words)” value with Desulfovibrio longus is on record as “some activity against SRB, but are not as effective as glutaraldehyde”.
Consider `CCCCC1OC2CCC=CN2C1CC` (stereo not drawn) [Compound 1, 2-butyl-3-ethyl-3,7,8,8a-tetrahydro-2H-oxazolo[3,2-a]pyridine], for which the “biocidal activity against aerobic bacteria (in words)” value in series [1] is recorded as “do not show significant biocidal activity”. Further, the “minimum dose needed to achieve 3-log reduction in bacteria levels” value with Desulfovibrio longus (4 hours) amounted to 200 ppm; with Desulfovibrio longus (24 hours) it was 26 ppm. The “activity against SRB (in words)” value with Desulfovibrio longus is recorded as “some activity against SRB, but are not as effective as glutaraldehyde”. Also, the “log kill of treated bacterial populations relative to an untreated control” value was greater than 3 log in series [2] (37° C., 4 hr); 2 log in series [2] (37° C., 24 hr re-challenge with fresh bacteria, enumerated after 4 h); greater than 3 log in series [2] (55° C., 4 hr); 1 log in series [2] (55° C., 24 hr re-challenge with fresh bacteria, enumerated after 4 h); greater than 4 log in series [2] (70° C., 4 hr); greater than 4 log in series [2] (70° C., 24 hr re-challenge with fresh bacteria, enumerated after 4 h). Also, the “activity compared with glutaraldehyde (in words)” value in series [2] (70° C.) is on record as “equivalent activity to glutaraldehyde”; in series [2] (lower temperatures (37, 55° C.)), “less effective”.
For the compound `CC1OC2CCC=CN2C1C` (stereo not drawn) [Compound 5, 2,3-dimethyl-3,7,8,8a-tetrahydro-2H-oxazolo[3,2-a]pyridine], the “stability of the compound (in words)” value in series [3] is reported as “limited stability”.
On the same count and under the same terms, to `CC1(C)COC2CCC=CN21` (stereo not drawn) [Compound 4, 3,3-dimethyl-3,7,8,8a-tetrahydro-2H-oxazolo[3,2-a]pyridine] belongs “limited stability”.
